Structures can show the parent of a compound that is named as a salt. Where two headings read alike, the source gives them in different places.
Tests used:
[1] = Solubility study of phosphate salt crystals in aqueous media at pH 1.2-6.8; type: physicochemical; settings: for solubility at 1 hr: read-out: Solubility after 1 hr; for solubility at 16 hr: read-out: Solubility after 16 hrs
Experimental: The (6aR,9aS)-5,6a,7,8,9,9a-hexahydro-5-methyl-3-(phenylamino)-2-((4-(6-fluoropyridin-2-yl)phenyl)methyl)-cyclopent[4,5]imidazo[1,2-a]pyrazolo[4,3-e]pyrimidin-4(2H)-one mono-phosphate salt crystals are assessed for its aqueous solubility at lower pH. The (amorphous) free base is also tested for reference at a limited range of pH.
Phosphate (buffer) solutions are made at 50 mM concentration and the pH is adjusted to pH 2, 3, 4, 5 or 6.8 using either 3M phosphoric acid (lower pH) or 3M NaOH (higher pH). 0.1N HCl is also used, pH is measured as 1.2.
20 mg of the (6aR,9aS)-5,6a,7,8,9,9a-hexahydro-5-methyl-3-(phenylamino)-2-((4-(6-fluoropyridin-2-yl)phenyl)methyl)-cyclopent[4,5]imidazo[1,2-a]pyrazolo[4,3-e]pyrimidin-4(2H)-one mono-phosphate salt crystals or free base is weighed into a glass vial, and 2 ml of the relevant aqueous media is added. The vials are shaken. After 1 hr, a sample (˜1 ml) is removed via syringe, and filtered through a syringe filter (0.2 micron) into an HPLC vial. After shaking the suspensions for 16 hours, a second sample is taken. All samples are then diluted with the HPLC diluent by a factor of 1000 (except the pH 6.8 samples which are diluted ×10), and re-analysed by HPLC. In cases where the entire solid dissolved, the 2 ml solution is added to another 20 mg salt or free base.

[2] = USP2 dissolution study at pH 1 and 4.5; type: physicochemical; settings: for solubility at low pH in dissolution study: pH 1 (0.1 M HCl), 37 C; for time to full dissolution: pH 1, about 0.1 mg/mL (API equivalent), capsule in 1000 mL, 50 rpm
Excerpt: The rate of dissolution is an important factor in the bioavailability of an active pharmaceutical ingredient (API). This is commonly tested using standard conditions e.g. USP 2 dissolution testing. The pH of the aqueous media used can be correlated with the pH of the stomach (low pH −1-2) and the intestines (intermediate acidic pH −4-6). Therefore pH 1 (0.1 M HCl) and a citrate buffer at pH 4.5 (0.2M) are used for the dissolution testing.
The (6aR,9aS)-5,6a,7,8,9,9a-hexahydro-5-methyl-3-(phenylamino)-2-((4-(6-fluoropyridin-2-yl)phenyl)methyl)-cyclopent[4,5]imidazo[1,2-a]pyrazolo[4,3-e]pyrimidin-4(2H)-one mono-phosphate salt crystals are weighed (×4) into size 0 white gelatine capsules at 119 mg per capsule (equivalent to 100 mg API). The (6aR,9aS)-5,6a,7,8,9,9a-hexahydro-5-methyl-3-(phenylamino)-2-((4-(6-fluoropyridin-2-yl)phenyl)methyl)-cyclopent[4,5]imidazo-[1,2-a]pyrazolo[4,3-e]pyrimidin-4(2H)-one is also weighed (×2) into white gelatine capsules at 100 mg per capsule. These capsules are then dissolved using the standard set up of the USP 2 dissolution equipment i.e., in 1000 mL of the relevant aqueous media, stirrers set at 50 rpm, capsules placed in metal coils to weigh them down, media equilibrated with the water bath set at 37″C. Analytical samples are removed via canula, with an initial filter on the canula and secondary filtering through 0.2 micron syringe filters. The samples are then analysed without dilution by HPLC for API content. Calibration for HPLC is run using both the free base API and the phosphate salt.

[3] = Bridging study of monophosphate salt and free base in dog (plasma pharmacokinetics); type: in vivo; settings: po, 40 mg/kg; for half-life: read-out: E Half-life (converted)
Experimental: The mono-phosphate salt of (6aR,9aS)-5,6a,7,8,9,9a-hexahydro-5-methyl-3-(phenylamino)-2-((4-(6-fluoropyridin-2-yl)phenyl)methyl)-cyclopent[4,5]imidazo[1,2-a]pyrazolo[4,3-e]pyrimidin-4(2H)-one is administered to dogs at a dose of 40 mg/kg in gelatin capsules or via oral gavage in a vehicle formulation of HCl-Citrate, pH 3.5, 0.5% methylcellulose in water. […] The analysis of drug concentration in plasma samples collected is analyzed.
The pharmacokinetic (PK) parameters are determined from the plasma concentration versus time data by non-compartmental methods with uniform weighting (PK solutions 2.0™, Summit Research Services, Montrose, Colo.). The maximum observed concentration (Cmax) and the time of the maximum observed concentration (tmax) are obtained from the bioanalytical raw data. The area-under-the-plasma concentration-time curve from time zero to the time of the last measurable sample (AUC_) is calculated by the trapezoidal rule.

[4] = test system: phosphodiesterase 1 (PDE 1); settings: statement referring to WO 2009/075784; cited from earlier work
[5] = Single rising dose clinical study (pharmacokinetic profile); type: in vivo; settings: plasma, human, aqueous solution, Mean (SD)
Experimental: In a single rising dose clinical study involving 55 active subjects (15 placebo) with 11 active:3 placebo for each dose level of 10, 25, 75, 150, 300 mg, the mono-phosphate salt crystals of (6aR,9aS)-5,6a,7,8,9,9a-hexahydro-5-methyl-3-(phenylamino)-2-((4-(6-fluoropyridin-2-yl)phenyl)methyl)-cyclopent[4,5]imidazo[1,2-a]pyrazolo[4,3-e]pyrimidin-4(2H)-one is dissolved in water, and this aqueous solution is orally administered. The pharmacokinetic profile is setforth below in Table 7.

[6] = Solid-state properties of the mono-phosphate salt crystals for galenic formulation; type: physicochemical
[7] = 50 mM phosphate buffer, pH 2, aqueous buffer, thermodynamic from solid, pH 2, 50 mM phosphate buffer
[8] = 0.1N HCl, pH 1.2, simulated gastric fluid, thermodynamic from solid, pH 1.2 (0.1N HCl)
[9] = both sexes, Mean (M-5001 to F-5102), oral gavage
[10] = female, dog F-5101, oral gavage
[11] = female, dog F-5102, oral gavage
[12] = 50 mM phosphate buffer, pH 4, aqueous buffer, thermodynamic from solid, pH 4, 50 mM phosphate buffer
[13] = pH 5, 50 mM phosphate buffer, diluted 1000 times before HPLC
[14] = pH 6.8, 50 mM phosphate buffer, diluted 10 times before HPLC
[15] = female, dog F-1101, oral gavage
[16] = female, dog F-1102, oral gavage
[17] = female, dog F-2102, oral capsule

## CN1C(=O)c2c(nn(Cc3ccc(-c4cccc(F)n4)cc3)c2Nc2ccccc2)N2C1=N[C@@H]1CCC[C@@H]12 [Free base API (amorphous), (6aR,9aS)-5,6a,7,8,9,9a-hexahydro-5-methyl-3-(phenylamino)-2-((4-(6-fluoropyridin-2-yl)phenyl)methyl)-cyclopent[4,5]imidazo[1,2-a]pyrazolo[4,3-e]pyrimidin-4(2H)-one]
[1]; [7]
  solubility at 1 hr: > 20000 µg/mL
  solubility at 16 hr: > 20000 µg/mL
[1]; [8]
  solubility at 1 hr: > 20000 µg/mL
  solubility at 16 hr: > 20000 µg/mL
[1]; pH 3, 50 mM phosphate buffer
  Solubility after 1 hr: 2500 µg/mL
  Solubility after 16 hrs: 2200 µg/mL
[2]
  solubility at low pH in dissolution study: good solubility
  time to full dissolution: approximately 15 minutes
[3]; [9]
  AUC: 19200 ng·h/mL
  Cmax: 1020 ng/mL
  Tmax: 4 h
  half-life: 10.8 h
[3]; [10]
  AUC: 11500 ng·h/mL
  Cmax: 674 ng/mL
  Tmax: 8 h
  half-life: 6.7 h
[3]; [11]
  AUC: 14300 ng·h/mL
  Cmax: 2000 ng/mL
  Tmax: 2 h
  half-life: 5.5 h
[3]; male, dog M-5001, oral gavage
  AUC: 20100 ng·h/mL
  Cmax: 902 ng/mL
  Tmax: 4 h
  half-life: 14.8 h
[3]; male, dog M-5002, oral gavage
  AUC: 36500 ng·h/mL
  Cmax: 1320 ng/mL
  Tmax: 4 h
  half-life: 16.7 h
[4]
  PDE1 inhibition (potency and selectivity in words): potent and selective phosphodiesterase 1 (PDE 1) inhibitor

## CN1C(=O)c2c(nn(Cc3ccc(-c4cccc(F)n4)cc3)c2Nc2ccccc2)N2C1=N[C@@H]1CCC[C@@H]12 [Phosphate salt, (6aR,9aS)-5,6a,7,8,9,9a-hexahydro-5-methyl-3-(phenylamino)-2-((4-(6-fluoropyridin-2-yl)phenyl)methyl)-cyclopent[4,5]imidazo[1,2-a]pyrazolo[4,3-e]pyrimidin-4(2H)-one]
[1]; 50 mM phosphate buffer, pH 4, aqueous buffer, thermodynamic from solid, pH 4
  solubility: ≤ 7700 µg/mL
[1]; [12]
  solubility at 1 hr: 2500 µg/mL
  solubility at 16 hr: 7700 µg/mL
[1]; pH 1.2 (0.1N HCl)
  Solubility after 1 hr: >20000 µg/mL
  Solubility after 16 hrs: >20000 µg/mL
[1]; pH 2, 50 mM phosphate buffer
  Solubility after 1 hr: 13600 µg/mL
  Solubility after 16 hrs: 17000 µg/mL
[1]; pH 3
  solubility compared with the amorphous free base: better solubility than the amorphous free base
[1]; pH 3, 50 mM phosphate buffer
  Solubility after 1 hr: 8400 µg/mL
  Solubility after 16 hrs: 9400 µg/mL
[1]; [13]
  Solubility after 1 hr: Below detection limit*
  Solubility after 16 hrs: Below detection limit*
[1]; [14]
  Solubility after 1 hr: Below detection limit*
  Solubility after 16 hrs: Below detection limit*
[2]; USP 2, pH 1 and pH 4.5
  dissolution rate compared with the free base: better dissolution rates than the free base
[2]
  solubility at low pH in dissolution study: good solubility
  time to full dissolution: approximately 15 minutes
[3]; both sexes, Mean, oral capsule
  AUC: 18700 ng·h/mL
  Tmax: 2 h
  half-life: 7.3 h
[3]; both sexes, Mean, oral gavage
  AUC: 21300 ng·h/mL
  Tmax: 4 h
  half-life: 8.7 h
[3]; [15]
  AUC: 16200 ng·h/mL
  Cmax: 1080 ng/mL
  Tmax: 4 h
  half-life: 6.6 h
[3]; [16]
  AUC: 21300 ng·h/mL
  Cmax: 1360 ng/mL
  Tmax: 8 h
  half-life: 5.5 h
[3]; [17]
  AUC: 20500 ng·h/mL
  Cmax: 1470 ng/mL
  Tmax: 8 h
  half-life: 6.2 h
[3]; male, dog M-1001, oral gavage
  AUC: 16900 ng·h/mL
  Cmax: 918 ng/mL
  Tmax: 8 h
  half-life: 7.8 h
[3]; male, dog M-1002, oral gavage
  AUC: 31600 ng·h/mL
  Cmax: 1520 ng/mL
  Tmax: 4 h
  half-life: 12 h
[3]; male, dog M-2001, oral capsule
  AUC: 13200 ng·h/mL
  Cmax: 2430 ng/mL
  Tmax: 2 h
  half-life: 4.6 h
[3]; male, dog M-2002, oral capsule
  AUC: 21900 ng·h/mL
  Cmax: 1530 ng/mL
  Tmax: 2 h
  half-life: 7.8 h
[3]; Mean, oral capsule
  Cmax: 1330 ng/mL
[3]; Mean, oral gavage
  Cmax: 1160 ng/mL
[5]; single oral dose 10 mg
  AUC(0-inf): 772 ng·h/mL
  AUC(0-t): 768 ng·h/mL
  Cmax: 89.7 ng/mL
  Tmax: 1 h
[5]; single oral dose 25 mg
  AUC(0-inf): 1340 ng·h/mL
  AUC(0-t): 1340 ng·h/mL
  Cmax: 155 ng/mL
  Tmax: 0.5 h
[5]; single oral dose 75 mg
  AUC(0-inf): 3050 ng·h/mL
  AUC(0-t): 3040 ng·h/mL
  Cmax: 334 ng/mL
  Tmax: 1 h
[5]; single oral dose 150 mg
  AUC(0-inf): 5050 ng·h/mL
  AUC(0-t): 5040 ng·h/mL
  Cmax: 585 ng/mL
  Tmax: 1 h
[5]; single oral dose 300 mg
  AUC(0-inf): 8190 ng·h/mL
  AUC(0-t): 8180 ng·h/mL
  Cmax: 828 ng/mL
  Tmax: 1 h
[6]; general statement
  solubility: good solubility
[6]; solid salt crystals
  hygroscopicity: low hygroscopicity
  stability: particularly stable

— patent publication US9469647B2, “Salt crystals” (INTRA-CELLULAR THERAPIES, INC., priority 2012, dated 2016)
